Molecules are shown by their SMILES.

The data set is described as follows: Verification of solubility of carbodiimide-derived urea in NMP and DMF. The class given is physicochemical. Particulars: for Re-precipitation: 0.77 M, after 24 hours or more. The text has this: The concentration of carbodiimide at the time of preactivation performed in the elongation steps of Reference Example 2-3 and Examples 2-4 and 2-5 was 0.77 mol/L. To confirm the risk of precipitation in case that all carbodiimide is converted to urea, the solubility in NMP and DMF was confirmed according to the following procedure, using the DIC-derived urea with which precipitates were confirmed in Reference Examples 2-3 and the DsBC-derived urea with which no precipitates were confirmed in Examples 2-4 and 2-5.
Into 1.5 mL vials with a screw cap, DIC urea (compound SS05) and DsBC urea (compound SS06) synthesized in Example 1-3 were weighed and placed as described in Table 11, and NMP or DMF was added to be each concentration. The mixture was stirred at room temperature for 5 minutes or more, and then allowed to stand to confirm whether the urea was dissolved or not. […]

Where [1] appears, read: solvent DMF, concentration 0.77 M (0.77 mol/L), room temperature.
Setting [2] is: solvent NMP, concentration 0.77 M (0.77 mol/L), room temperature.

As for `CC(C)NC(=O)NC(C)C` [SS05, 1,3-Diisopropylurea], the Dissolved or not result is “not fully dissolved” (in DMF at 0.17 M or more); “not fully dissolved” (in NMP at a concentration of 0.34 M or more); “not fully dissolved” (solvent DMF, concentration 0.17 M, room temperature); “not fully dissolved” (solvent DMF, concentration 0.34 M, room temperature); “not fully dissolved” (solvent DMF, concentration 0.38 M, room temperature); “not fully dissolved” (solvent DMF, concentration 0.51 M, room temperature). Further, the Dissolved or not result is listed as “not fully dissolved” under setting [1]; “dissolved” (solvent NMP, concentration 0.17 M, room temperature, stirred 5 minutes or more then allowed to stand); “not fully dissolved” (solvent NMP, concentration 0.34 M, room temperature); “not fully dissolved” (solvent NMP, concentration 0.38 M, room temperature); “not fully dissolved” (solvent NMP, concentration 0.51 M, room temperature); “not fully dissolved” under setting [2].
In the case of `CCC(C)NC(=O)NC(C)CC` (stereo not shown) [SS06, 1,3-di-sec-butylurea], the Re-precipitation result was “no re-precipitation was confirmed” (DMF) and “no re-precipitation was confirmed” (NMP). The Dissolved or not result is given as “completely dissolved” under setting [1]; “dissolved” (solvent DMF, concentration 0.77 M (0.77 mol/L), room temperature, listed as DsBC Urea (SS06)); “completely dissolved” under setting [2]; “dissolved” (solvent NMP, concentration 0.77 M (0.77 mol/L), room temperature, listed as DsBC Urea (SS06)).
Turning to `CCNC(=O)NC(C)(C)C` [SS07, 1-(tert-butyl)-3-ethylurea], the Re-precipitation result by setting is: (DMF) “no re-precipitation was confirmed”; (NMP) “no re-precipitation was confirmed”. The Dissolved or not result is “completely dissolved” under setting [1] and “completely dissolved” under setting [2].

The values are drawn from patent US20250276995A1, “PRODUCTION METHOD FOR PEPTIDE COMPOUND” (CHUGAI SEIYAKU KABUSHIKI KAISHA, priority 2022, published 2025).
